The target in this experiment is Beta-2 adrenergic receptor (Homo sapiens) (UniProt P07550). The experiment is described as follows: beta2AR agonists driving receptor internalization, dose response, cell-based, FAP fluorogen, flow cytometry, powder set 4 (AID 651872). Conditions: AM2.2-beta2AR cells, 90 min.
Beta-2 adrenergic receptor (Homo sapiens), sequence (P07550 whole entry, looked up): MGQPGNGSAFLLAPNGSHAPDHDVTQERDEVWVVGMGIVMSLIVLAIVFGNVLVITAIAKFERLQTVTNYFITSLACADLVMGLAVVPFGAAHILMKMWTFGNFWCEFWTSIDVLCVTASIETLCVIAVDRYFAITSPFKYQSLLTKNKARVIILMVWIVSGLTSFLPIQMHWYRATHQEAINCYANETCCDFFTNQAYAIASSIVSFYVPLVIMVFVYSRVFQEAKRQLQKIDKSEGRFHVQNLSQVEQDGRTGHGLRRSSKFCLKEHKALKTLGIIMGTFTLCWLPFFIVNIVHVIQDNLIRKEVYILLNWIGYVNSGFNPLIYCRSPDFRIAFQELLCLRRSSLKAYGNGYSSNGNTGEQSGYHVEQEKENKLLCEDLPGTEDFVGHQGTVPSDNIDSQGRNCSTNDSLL

Consider `O=C(C1CCC(=O)N1S(=O)(=O)c1ccccc1)N1CCN(c2ccccn2)CC1` (stereo unspecified), for which the concentration giving a half-maximal response (EC50) was 26.2 nM.
For `COc1ccccc1N1CCN(C(=O)CN(C)S(=O)(=O)c2ccc(C)cc2)CC1` the value was 676 nM.
As to `Cc1ccc(S(=O)(=O)N(C)CC(=O)N2CCN(c3ccccn3)CC2)cc1`, the 50% effective concentration (EC50) was 1.6 nM.
The result for `O=C(CN(Cc1ccccc1)S(=O)(=O)c1ccc(Cl)cc1)N1CCN(c2ccccn2)CC1` reads 208 nM; that for `CN(CC(=O)N1CCN(c2cccc(C(F)(F)F)c2)CC1)S(=O)(=O)c1ccc(F)cc1`, 9640 nM.
For `CC(=O)Nc1ccc(S(=O)(=O)N2CCCCC2c2cccnc2)cc1` (stereo unspecified) the value was 10.5 nM.

The record behind these values is PubChem BioAssay AID651872 (NMMLSC, 2012).
